This is an account of results in patent publication US20110071158A1, “NEW COMPOUNDS” (BOEHRINGER INGELHEIM INTERNATIONAL GMBH, priority 2009, published 2011).

Each structure is given as a SMILES string. pIC50: −log10 of the molar value.

The target in the experiment is T1, PTK2 enzyme (Homo sapiens, UniProt Q05397).
T1 construct: purchased Invitrogen PV3832
T1 sequence (Q05397 whole entry): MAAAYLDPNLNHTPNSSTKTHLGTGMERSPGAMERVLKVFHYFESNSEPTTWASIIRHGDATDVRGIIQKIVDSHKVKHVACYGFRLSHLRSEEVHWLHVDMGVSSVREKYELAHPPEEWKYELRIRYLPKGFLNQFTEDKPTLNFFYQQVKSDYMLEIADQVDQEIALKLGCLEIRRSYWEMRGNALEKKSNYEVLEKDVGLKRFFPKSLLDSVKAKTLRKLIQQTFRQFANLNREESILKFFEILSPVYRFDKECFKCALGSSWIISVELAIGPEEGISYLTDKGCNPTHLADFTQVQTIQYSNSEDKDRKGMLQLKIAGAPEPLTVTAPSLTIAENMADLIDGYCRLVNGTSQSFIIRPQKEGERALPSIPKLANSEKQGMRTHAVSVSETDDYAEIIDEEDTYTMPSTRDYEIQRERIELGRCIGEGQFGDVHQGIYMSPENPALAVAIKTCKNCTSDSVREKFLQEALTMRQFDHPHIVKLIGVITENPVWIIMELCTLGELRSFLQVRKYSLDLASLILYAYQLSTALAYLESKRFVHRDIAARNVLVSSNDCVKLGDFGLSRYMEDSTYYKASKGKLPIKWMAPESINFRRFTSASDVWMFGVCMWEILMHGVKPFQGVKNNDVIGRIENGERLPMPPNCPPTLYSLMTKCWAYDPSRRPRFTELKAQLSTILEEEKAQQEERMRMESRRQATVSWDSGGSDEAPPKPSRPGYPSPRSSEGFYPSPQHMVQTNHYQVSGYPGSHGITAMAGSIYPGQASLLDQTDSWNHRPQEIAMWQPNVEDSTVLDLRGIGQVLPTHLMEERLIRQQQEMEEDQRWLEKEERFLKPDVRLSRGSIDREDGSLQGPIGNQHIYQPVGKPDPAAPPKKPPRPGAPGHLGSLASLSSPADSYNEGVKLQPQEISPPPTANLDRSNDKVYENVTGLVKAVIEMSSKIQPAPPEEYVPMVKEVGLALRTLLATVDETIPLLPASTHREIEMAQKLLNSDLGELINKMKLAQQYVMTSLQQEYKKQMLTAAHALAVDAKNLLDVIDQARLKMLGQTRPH
The experiment can be described thus: PTK2 enzyme test, Assay 1 (DELFIA, poly-Glu-Tyr substrate, antibody PT60). The conditions noted are these: Assay 1 (values without *); 1 h pre-incubation, 2% DMSO. The format is biochemical. How it is done:
This test uses active PTK2 enzyme (Invitrogen Code PV3832) and poly-Glu-Tyr (4:1, Sigma P-0275) as the kinase substrate. The kinase activity is detected through the phosphorylation of the substrate in a DELFIA™ assay. The phosphorylated substrate is detected with the europium-labelled phosphotyrosine antibody PT60 (Perkin Elmer, No.: AD00400).
In order to determine concentration-activity curves with PTK2-inhibitors the compounds are serially diluted in 10% DMSO/H2O and 10 μL of each dilution are placed in each well of a 96-well microtitre plate (clear plate with a U-shaped base, Greiner No. 650101) (the inhibitors are tested in duplicates) and mixed with 10 μL/well of PTK2 kinase (0.01 μg/well). PTK2 kinase has been correspondingly diluted beforehand with kinase dilution buffer (20 mM TRIS/HCl pH 7.5, 0.1 mM EDTA, 0.1 mM EGTA, 0.286 mM sodium orthovanadate, 10% glycerol with the addition of freshly prepared BSA (fraction V, 1 mg/mL) and DTT (1 mM)). The test compound and the PTK2 kinase are pre-incubated for 1 h at RT and shaken at 500 revolutions per min. The reaction is started by the addition of 10 μL/well poly (Glu,Tyr) substrate (25 μg/well poly (Glu, Tyr), 0.05 μg/well biotinylated poly (Glu,Tyr) dissolved in 250 mM TRIS/HCl pH 7.5, 9 mM DTT)—the final concentration of DMSO is 2%. Then 20 μL of ATP Mix (30 mM TRIS/HCl pH 7.5, 0.02% Brij, 0.2 mM sodium orthovanadate, 10 mM magnesium acetate, 0.1 mM EGTA, 1× phosphatase inhibitor cocktail 1 (Sigma, No.: P2850), 50 μM ATP (Sigma, No.: A3377; 15 mM stock solution)) are added. After 1 h of kinase reaction (the plates are shaken at 500 rpm), the reaction is stopped by the addition of 12 μL/well 100 mM EDTA, pH 8.0 and shaken for a further 5 min at RT (500 rpm). 55 μL of the reaction mixture are transferred into a streptavidin plate (Strepta Well High Bind (transparent, 96-well) made by Roche, No.: 11989685001) and incubated for 1 h at RT (shaking at 500 rpm). Then the microtitre plate is washed three times with 200 μL/well D-PBS (Invitrogen, No. 14190). 100 μL of a solution containing DELFIA Eu-N1 Anti-Phosphotyrosine PT60 antibody (Perkin Elmer, No.: AD0040, diluted 1:2000 in DELFIA test buffer (Perkin Elmer, No.: 1244-111)) is then added and the mixture is incubated for 1 h at RT (shaking at 500 rpm). Then the plate is washed three times with 200 μL/well DELFIA washing buffer (Perkin Elmer, No.: 1244-114), 200 μL/well strengthening solution (Perkin Elmer, No.: 1244-105) are added and the mixture is incubated for 10 min at RT (shaking at 300 rpm).
The time-delayed europium fluorescence is then measured in a microtitre plate reader (VICTOR^3, Perkin Elmer). […] Wells that contain test buffer instead of enzyme are used as a control of the background kinase activity.
The IC50 values are determined from analyses of the concentration activity by iterative calculation with the aid of a sigmoid curve analysis algorithm (FIFTY, based on Graph PAD Prism Version 3.03) with a variable Hill coefficient.
Take `COc1cc(N2CCN(C)CC2)ccc1Nc1ncc(C(F)(F)F)c(N[C@@H]2CCCC[C@H]2NC(C)=O)n1` [Example I-29]: the pIC50 was 9.00.
As for `CNC(=O)c1cc(OC)c(Nc2ncc(C(F)(F)F)c(N[C@@H]3CCCC[C@H]3NC(C)=O)n2)cc1F` [Example I-85], the negative-log IC50 (pIC50) was 8.70.
Consider `CNCc1ccc(Nc2ncc(C(F)(F)F)c(N[C@@H]3CCCC[C@H]3NC(=O)C(C)C)n2)c(OC)c1` [Example I-79], for which the negative-log IC50 (pIC50) was 8.52.
In turn, `CCC(=O)N[C@@H]1CCCC[C@H]1Nc1nc(Nc2ccc(CNC)cc2OC)ncc1C(F)(F)F` [Example I-77] showed a negative-log IC50 (pIC50) of 8.70.
Under `CCN1CCC(NC(=O)c2ccc(Nc3ncc(C(F)(F)F)c(N[C@@H]4CCCC[C@H]4NC(C)=O)n3)c(OC)c2)CC1` [Example I-8] stands 8.70; under `COc1cc(CN2CCCC2)ccc1Nc1ncc(C(F)(F)F)c(N[C@@H]2CCCC[C@H]2NC(C)=O)n1` [Example I-117], 9.00; under `CCN(CC)C(=O)CN[C@@H]1CCCC[C@H]1Nc1nc(Nc2cc(F)c(C(=O)NC3CCN(C)CC3)cc2OC)ncc1C(F)(F)F` [Example I-25], 7.62.
`CNC(=O)c1ccc(Nc2ncc(C(F)(F)F)c(N[C@@H]3CCCC[C@H]3NC(C)=O)n2)c(OC)c1` [Example I-39] gave a negative-log IC50 (pIC50) of 8.70.
In turn, `COc1cc(C(=O)NC2CCN(C)CC2)ccc1Nc1ncc(C(F)(F)F)c(N[C@@H]2CCCC[C@@H]2N(OC)C(C)=O)n1` [Example I-114] showed a pIC50 of 9.00.
The molecule `COc1cc(C(=O)NCCN(C)C)c(Cl)cc1Nc1ncc(Br)c(N[C@@H]2CCCC[C@H]2N(C)S(C)(=O)=O)n1` [Example I-172] showed a pIC50 of 8.70.
Molecule `COc1cc(C(=O)O)ccc1Nc1ncc(C(F)(F)F)c(N[C@@H]2CCCC[C@H]2NC(C)=O)n1` [Example I-89] gave a negative logarithm of the IC50 (pIC50) of 8.05.
Molecule `COc1cc(Nc2ncc(C(F)(F)F)c(N[C@@H]3CCCC[C@H]3N(C)S(C)(=O)=O)n2)ccc1NC(C)=O` [Example I-177] gave a pIC50 of 8.70.
Under `COCCN1CCC(NC(=O)c2cc(OC)c(Nc3ncc(Cl)c(N[C@@H]4CCCC[C@H]4N(C)S(C)(=O)=O)n3)cc2Cl)CC1` [Example I-167] stands 8.52; under `COc1cc(C(=O)NCCN(C)C)ccc1Nc1ncc(Br)c(N[C@@H]2CCCC[C@H]2NC(C)=O)n1` [Example I-47], 9.02; under `COc1cc(C(=O)NC2CCCN(C)C2)c(F)cc1Nc1ncc(C(F)(F)F)c(N[C@@H]2CCCC[C@H]2NC(C)=O)n1` (some centres unmarked) [Example I-88], 8.70.
Molecule `COc1cc(C(=O)NC2CCN(C)CC2)ccc1Nc1ncc(C(F)(F)F)c(N[C@@H]2CCCC[C@H]2NC(=O)CC(C)C)n1` [Example I-14] showed a pIC50 of 7.49.
In turn, `CCS(=O)(=O)N(C)[C@@H]1CCCC[C@H]1Nc1nc(Nc2ccc(C(=O)NCCN(C)C)cc2OC)ncc1C(F)(F)F` [Example I-156] gave a negative logarithm of the IC50 (pIC50) of 8.70.
`COCCNC(=O)c1ccc(Nc2ncc(Br)c(N[C@@H]3CCCC[C@H]3NC(C)=O)n2)c(OC)c1` [Example I-52] had a negative logarithm of the IC50 (pIC50) of 8.70.
Turning to `CCNC(=O)c1ccc(Nc2ncc(Br)c(N[C@@H]3CCCC[C@H]3NC(C)=O)n2)c(OC)c1` [Example I-48], the negative logarithm of the IC50 (pIC50) was 8.70.
`COc1ccccc1Nc1ncc(Br)c(N[C@@H]2CCCC[C@H]2NC(C)=O)n1` [Example I-53]: the negative logarithm of the IC50 (pIC50) is 8.10.
Consider `COc1cc(C(=O)NC2CCN(C)CC2)ccc1Nc1ncc(C(F)(F)F)c(N[C@@H]2CCCC[C@H]2NC(=O)C(C)C)n1` [Example I-12], for which the pIC50 is 8.52.
Regarding `CCN([C@@H]1CCCC[C@H]1Nc1nc(Nc2ccc(NC(C)=O)c(C)c2)ncc1C(F)(F)F)S(C)(=O)=O` [Example I-188], the pIC50 was 7.80.
Under `COc1cc(C(=O)NC2CCOCC2)ccc1Nc1ncc(C(F)(F)F)c(N[C@H]2CCCC[C@@H]2NC(C)=O)n1` [Example I-36] stands 6.40.
For the molecule `COc1cc(C(=O)N(C)C)ccc1Nc1ncc(C(F)(F)F)c(N[C@@H]2CCCC[C@H]2NC(C)=O)n1` [Example I-13], the negative logarithm of the IC50 (pIC50) was 7.74.
Under `COc1cc(C(=O)NOCCN(C)C)ccc1Nc1ncc(C(F)(F)F)c(N[C@@H]2CCCC[C@H]2N(C)S(C)(=O)=O)n1` [Example I-132] stands 9.03; under `COc1cc(C(=O)NC2CCN(C)CC2)ccc1Nc1ncc(C(F)(F)F)c(N[C@@H]2CCCC[C@H]2NC(=O)C2CCC2)n1` [Example I-23], 8.52; under `CCN1CCC(NC(=O)c2ccc(Nc3ncc(C(F)(F)F)c(N[C@@H]4CCCC[C@H]4N(C)C(C)=O)n3)c(OC)c2)CC1` [Example I-71], 8.00.
Consider `COc1cc(C(=O)NC2CCOCC2)ccc1Nc1ncc(Br)c(N[C@@H]2CCCC[C@H]2NC(C)=O)n1` [Example I-44], for which the negative-log IC50 (pIC50) was 8.70.
The value for `COc1cc(C(=O)NC2CCN(C)CC2)ccc1Nc1ncc(C(F)(F)F)c(N[C@@H]2CCCC[C@H]2NC(=O)C(C)(C)C)n1` [Example I-16] was 8.40; that for `CCN1CCC(NC(=O)c2ccc(Nc3ncc(Br)c(N[C@@H]4CCCC[C@H]4NC(C)=O)n3)c(OC)c2)CC1` [Example I-51] was 9.00.
Take `CCC(=O)N[C@@H]1CCCC[C@H]1Nc1nc(Nc2ccc(C(=O)NC3CCN(C)CC3)cc2OC)ncc1C(F)(F)F` [Example I-1, 3-methoxy-N-(1-methyl-piperidin-4-yl)-4-[4-((1R,2R)-2-propionylamino-cyclohexylamino)-5-trifluoromethyl-pyrimidin-2-ylamino]-benzamide]: the pIC50 was 9.00.
Take `COCC(=O)N[C@@H]1CCCC[C@H]1Nc1nc(Nc2ccc(C(=O)NC3CCN(C)CC3)cc2OC)ncc1C(F)(F)F` [Example I-21]: the pIC50 was 8.40.
As to `CNC(=O)c1ccc(Nc2ncc(Cl)c(N[C@@H]3CCCC[C@H]3NC(C)=O)n2)c(OC)c1` [Example I-56], the pIC50 is 8.52.
Take `COc1cc(Nc2ncc(C(F)(F)F)c(N[C@@H]3CCCC[C@H]3N(C)S(C)(=O)=O)n2)ccc1C(=O)NC1CCN(C)CC1` [Example I-173]: the pIC50 is 8.70.
In turn, `COc1cc(C(=O)NCCCN(C)C)ccc1Nc1ncc(C(F)(F)F)c(N[C@@H]2CCCC[C@H]2N(C)C(C)=O)n1` [Example I-112] gave a negative-log IC50 (pIC50) of 9.00.
As for `COc1cc(CN2CCN(C)CC2)ccc1Nc1ncc(C(F)(F)F)c(N[C@@H]2CCCC[C@H]2NC(C)=O)n1` [Example I-116], the pIC50 is 9.00.
With `COc1cc(C(=O)NC2CCN(C)CC2)ccc1Nc1ncc(Br)c(N[C@@H]2CCCC[C@H]2NC(C)=O)n1` [Example I-50], the negative logarithm of the IC50 (pIC50) was 9.00.
The value for `COc1cc(C(=O)NC2CCOCC2)c(F)cc1Nc1ncc(C(F)(F)F)c(N[C@@H]2CCCC[C@H]2NC(C)=O)n1` [Example I-86] was 8.15; that for `COc1cc(C(=O)NC(C)C)ccc1Nc1ncc(C(F)(F)F)c(N[C@@H]2CCCC[C@H]2NC(C)=O)n1` [Example I-2, 4-[4-(2-acetylamino-cyclohexylamino)-5-trifluoromethyl-pyrimidin-2-ylamino]-N-isopropyl-3-methoxy-benzamide] was 8.52; that for `CNCc1ccc(Nc2ncc(C(F)(F)F)c(N[C@@H]3CCCC[C@H]3NC(=O)COC)n2)c(OC)c1` [Example I-78] was 8.40.
Under `COc1cc(C(=O)NC2CCCN(C)C2)ccc1Nc1ncc(Cl)c(N[C@@H]2CCCC[C@H]2N(C)S(C)(=O)=O)n1` (some centres unmarked) [Example I-163] stands 8.70; under `COc1cc(N2CCN(C)CC2)ccc1Nc1ncc(C(F)(F)F)c(N[C@@H]2CCCC[C@H]2NC(=O)CN(C)C)n1` [Example I-32], 7.68; under `COc1cc(N2CCN(C)CC2)ccc1Nc1ncc(C(F)(F)F)c(N[C@@H]2CCCC[C@H]2NC(=O)CC(C)C)n1` [Example I-33], 7.15.
`COc1cc(C(=O)NC2CCN(C)CC2)ccc1Nc1ncc(C(F)(F)F)c(N[C@@H]2CCCC[C@H]2N(CC2CC2)C(C)=O)n1` [Example I-103] had a pIC50 of 8.15.

As a reminder, the pIC50 is the negative decadic logarithm of the IC50, by convention in mol/L. High values mean a low IC50, low ones a high IC50.
